Test results: PMC12797170, “Potent Competitive Inhibitors of Ecto-5′-nucleotidase (CD73) based on 6‑(Het)aryl-7-deazapurine Ribonucleoside 5′‑O‑Bisphosphonates” (ACS Pharmacology & Translational Science, 2025)
≈ marks a conversion by molar mass, not a printed value. Where two headings read alike, the source gives them in different places.

Assays:
[1] = In vivo pharmacokinetic study, intravenous; parameters: species or system male CD-1 mice; settings: for half-life: male, footnote: t1/2 stability in plasma, text: half-life in mouse PK
In short: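 Single intravenous dose in male CD-1 mice (n=3, 9 weeks, 29.2–33.7 g). Plasma levels measured by LC-MS/MS at 5, 15, 30, 60, 120, 240 and 480 min.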

[2] = Plasma protein binding, equilibrium dialysis, human plasma; format: in vitro ADME; settings: undiluted plasma
[3] = biological target: T1, recombinant human CD73 (hCD73) (Homo sapiens, UniProt P21589); experiment: CD73 activity assay on recombinant human CD73; format: biochemical; settings: ΔGexp = RT ln Ki
T1 sequence (P21589 27-574): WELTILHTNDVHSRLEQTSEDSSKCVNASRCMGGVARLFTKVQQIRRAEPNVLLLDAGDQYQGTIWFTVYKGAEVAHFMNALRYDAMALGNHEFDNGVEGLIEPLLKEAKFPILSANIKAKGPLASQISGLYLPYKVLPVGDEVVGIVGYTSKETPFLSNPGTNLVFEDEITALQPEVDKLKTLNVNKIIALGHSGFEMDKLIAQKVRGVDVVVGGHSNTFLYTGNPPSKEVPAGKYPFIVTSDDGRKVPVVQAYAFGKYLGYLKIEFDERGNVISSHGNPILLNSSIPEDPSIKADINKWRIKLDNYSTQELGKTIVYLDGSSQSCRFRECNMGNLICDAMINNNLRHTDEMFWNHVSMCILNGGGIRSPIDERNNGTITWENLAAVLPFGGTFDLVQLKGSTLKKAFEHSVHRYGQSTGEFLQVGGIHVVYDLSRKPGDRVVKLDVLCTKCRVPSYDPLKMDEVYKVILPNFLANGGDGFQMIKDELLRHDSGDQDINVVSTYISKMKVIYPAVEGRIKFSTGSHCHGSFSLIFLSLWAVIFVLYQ

[4] = Plasma stability assay, human plasma
HepG2 = experiment: In vitro cytotoxic activity; format: cell-based; settings: Homo sapiens
Protocol: (§1) All the compounds were also tested for their in vitro cytotoxic activity on a small panel of four cancer cell lines (CCRF-CEM, HepG2, HeLa S3, HL-60) and nonmalignant human dermal fibroblasts (NHDF).

CCRF-CEM = experiment: In vitro cytotoxic activity; format: cell-based; settings: Homo sapiens
Protocol: as §1

[5] = tested on: nonmalignant human dermal fibroblasts (NHDF); experiment: In vitro cytotoxic activity; format: cell-based
Protocol: as §1

HL-60 = experiment: In vitro cytotoxic activity; format: cell-based; settings: Homo sapiens
Protocol: as §1

HeLa S3 = experiment: In vitro cytotoxic activity; format: cell-based; settings: Homo sapiens
Protocol: as §1

[6] = Kinetic solubility in PBS; format: physicochemical; settings: phosphate-buffered saline, pH 7.4, aqueous buffer, kinetic from dmso stock
In short: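 Echo-MS quantitation with calibration from 0.05 to 4 μM, after 1:99 dilution of filtrate into 50% acetonitrile. Filtrate came from a 100 μM PBS (pH 7.4) solution equilibrated 2 h at room temperature with shaking, in duplicate.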

[7] = Plasma stability assay, mouse plasma
[8] = Plasma protein binding, mouse plasma; format: in vitro ADME
in vitro [9] = settings: mouse, plasma
[10] = Microsomal stability assay, mouse liver microsomes; format: in vitro ADME; settings: for Mics (m) comp remaining 60 min: 10 μM; for microsomal CLint at 10 µM: pooled liver microsomes, pH 7.4, read-out: Mics (m) CLint
[11] = tested on: MDA-MB-231 breast cancer cell line; experiment: CellTox Green cytotoxicity assay; format: cell-based, human; settings: 24 h
Protocol: MDA-MB-231 cells were harvested and counted using an automated cell counter. A total of 2,500 cells per well were seeded in 20 μL of phenol red-free complete RPMI medium into black 384-well plates. Five μL of CD73 inhibitors (final concentration: […]) or 5 μL PBS (negative control) were added to each well, except for wells designed as maximal signal (dead cell) controls. Plates were incubated for 24 h at 37 °C in a humidified CO2 incubator. To generate the maximum signal control, 5 μL of lysis buffer (CellTox Green Cytotoxicity Assay, Promega) was added to the dead cell controls, followed by a 30 min incubation at room temperature. Subsequently, 25 μL/well of CellTox Green Dye (diluted 1:500 in the assay buffer; Promega) was added. Plates were incubated in the dark on an orbital shaker at 500–700 rpm for 15 min. Fluorescence was measured using an Infinite M1000 plate reader (Tecan) with excitation at 485–500 nm and emission at 520–530 nm. Data were analyzed in GraphPad Prism 10.
Figure S2: Effect of CD73 inhibition on the viability of CD73-expressing breast cancer cell line. MDA-MB-231 cells were incubated with 10 µM CD73 inhibitors for 24 hours. Viability was assessed using the CellTox™ Green Cytotoxicity Assay.
± s.d. of technical triplicates (s.d., standard deviation).
(1 picture or pasted object on this page, not shown here)

in vitro [12] = settings: human, plasma
[13] = Microsomal stability assay, human liver microsomes; format: in vitro ADME; settings: for Mics (hu) comp remaining 60 min: 10 μM; for microsomal CLint at 10 µM: pooled liver microsomes, pH 7.4, read-out: Mics (hu) CLint
[14] = mouse, plasma, 1 mg/kg, male CD-1 mice, intravenous, single dose, read-out: Cl (obs), observed clearance
[15] = human plasma protein binding, read-out: PPB (hu) (converted)
[16] = CD-1, mouse, plasma, iv, 1 mg/kg, intravenous
[17] = mouse, plasma, Tables 2 and 4, mouse plasma, read-out: fup, fraction unbound in mouse plasma
[18] = mouse, plasma, mouse plasma protein binding, read-out: PPB (m) (converted)

| Compound | clearance [1, 14] [mL/min/kg] | fraction unbound at 4 h, 100 µM [2, 15] | dG_exp, experimental binding free energy [3] | solubility at 2 h [6] [µM] | half-life [1, 16] [h] | half-life at 10 µM (in vitro [9]) [h] | Mics (m) comp remaining 60 min [10] [%] | microsomal CLint at 10 µM [10] [µL/min/mg] | half-life at 10 µM (in vitro [12]) [h] | fraction unbound at 4 h, 100 µM [8, 17] | fraction unbound at 4 h, 100 µM [8, 18] | Mics (hu) comp remaining 60 min [13] [%] | microsomal CLint at 10 µM [13] [µL/min/mg] | IC50 (HepG2) [µM] | IC50 (CCRF-CEM) [µM] | IC50 [5] [µM] | IC50 (HL-60) [µM] | IC50 (HeLa S3) [µM] | further results |
| --- | --- | --- | --- | --- | --- | --- | --- | --- | --- | --- | --- | --- | --- | --- | --- | --- | --- | --- | --- |
| O=P(O)(O)CP(=O)(O)OC[C@H]1O[C@@H](n2ccc3c(-c4cc5ccccc5c5ccccc45)ncnc32)[C@H](O)[C@@H]1O [4A.11] | 2 | 0.013 | –13.1 kcal/mol | 68 (≈ 39.8 µg/mL) |  |  |  |  |  |  |  |  |  | > 10 | > 10 | > 10 | > 10 | > 10 | clearance ([1]; in vivo PK in mice, unit not given): moderate clearance; half-life ([1]; CD-1, 1 mg/kg, intravenous): 1.65 h; fraction unbound at 4 h, 100 µM ([2]; Tables 1 and 3, human plasma as printed in footnote, read-out: fup, fraction unbound in human plasma): 0.31; half-life at 10 µM [4]: > 2 h; half-life at 10 µM [7]: > 2 h; fraction unbound at 4 h, 100 µM ([8]; mouse plasma protein binding, read-out: PPB (m) (converted)): 0.222 |
| O=P(O)(O)CP(=O)(O)OC[C@H]1O[C@@H](n2ccc3c(-c4cc5ccccc5[nH]4)nc(Cl)nc32)[C@H](O)[C@@H]1O [7B.24] | 12 | 0.012 | –15.7 kcal/mol | > 100 | 0.617 | > 2 | 72 | 12 | > 2 | 0.21 | 0.201 | 111 | < 1 | > 10 | > 10 | > 10 | > 10 | > 10 |  |
| O=P(O)(O)CP(=O)(O)OC[C@H]1O[C@@H](n2ccc3c(-c4cc5ccccc5o4)nc(Cl)nc32)[C@H](O)[C@@H]1O [7B.8] | 8.8 | 0.033 | –16.0 kcal/mol | 87 (≈ 48.7 µg/mL) | 0.142 | > 2 | 109 | < 1 | > 2 | 0.19 | 0.187 | 98 | 1 | > 10 | > 10 | > 10 | 6 | > 10 |  |

Further lines, with some results ahead:

| clearance [1, 14] [mL/min/kg] | fraction unbound at 4 h, 100 µM [2, 15] | dG_exp, experimental binding free energy [3] | solubility at 2 h [6] [µM] | half-life [1, 16] [h] | half-life at 10 µM (in vitro [9]) [h] | Mics (m) comp remaining 60 min [10] [%] | microsomal CLint at 10 µM [10] [µL/min/mg] | half-life at 10 µM (in vitro [12]) [h] | fraction unbound at 4 h, 100 µM [8, 17] | fraction unbound at 4 h, 100 µM [8, 18] | Mics (hu) comp remaining 60 min [13] [%] | microsomal CLint at 10 µM [13] [µL/min/mg] | Compound | IC50 (HepG2) [µM] | IC50 (CCRF-CEM) [µM] | IC50 [5] [µM] | IC50 (HL-60) [µM] | IC50 (HeLa S3) [µM] | further results |
| --- | --- | --- | --- | --- | --- | --- | --- | --- | --- | --- | --- | --- | --- | --- | --- | --- | --- | --- | --- |
| 0.73 | 0.034 | –15.4 kcal/mol | 92 (≈ 52.4 µg/mL) | 2.1 | > 2 | 94 | 2 | > 2 | 0.27 | 0.274 | 96 | 1 | O=P(O)(O)CP(=O)(O)OC[C@H]1O[C@@H](n2ccc3c(-c4cccc5ccccc45)nc(Cl)nc32)[C@H](O)[C@@H]1O [7B.6] | > 10 | > 10 | > 10 | 2.9 | > 10 | in vitro cytotoxicity against MDA-MB-231 [11]: nontoxic |
| 8.3 | 0.033 | –15.9 kcal/mol | 84 (≈ 47.9 µg/mL) | 0.122 | > 2 | 106 | < 1 | > 2 | 0.11 | 0.112 | 111 | < 1 | O=P(O)(O)CP(=O)(O)OC[C@H]1O[C@@H](n2ccc3c(-c4ccc5ccccc5c4)nc(Cl)nc32)[C@H](O)[C@@H]1O [7B.7] | > 10 | > 10 | > 10 | > 10 | > 10 |  |
| 7.2 | ≤ 0.01 | –14.6 kcal/mol | 85 (≈ 53.4 µg/mL) | 0.138 | > 2 | 112 | < 2 | > 2 | 0.23 | 0.234 | 132 | < 2 | COC(=O)c1ccc2cc(-c3nc(Cl)nc4c3ccn4[C@@H]3O[C@H](COP(=O)(O)CP(=O)(O)O)[C@@H](O)[C@H]3O)ccc2c1 [7B.29] | > 10 | > 10 | > 10 | > 10 | > 10 |  |
